Converted amounts (≈) assume the structure as drawn. “And” between values parts separate entries of the source, which are not always exact repeats. Equal entries are not always repeated. Where two headings read alike, the source gives them in different places.
Key:
[1] = test system: P. falciparum strains D6, TM91-C235, W2, C2B; test: Malaria SYBR Green I-Based Fluorescence (MSF) Assay; assay type: cell-based, Plasmodium falciparum; conditions: Plasmodium falciparum, read-out: P. falciparum IC50
In short: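 Growth inhibition of P. falciparum strains in a microtiter drug sensitivity assay, with parasite proliferation measured as malarial DNA content via SYBR Green I intercalation fluorescence. Strains: drug-sensitive D6, multi-drug resistant TM91-C235, chloroquine-resistant W2, and atovaquone-resistant C2B.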

[2] = test system: T. gondii bradyzoites (EGS strain); test: EGS strain bradyzoite assay (cysts in HFF, dolichos/BAG1 staining); assay type: cell-based, Toxoplasma gondii
Experimental: (§1) HFF cells were grown in IMDM (1×, [+] glutamine, [+] 25 mM HEPES, [+] Phenol red, 10% FBS, [Gibco, Denmark]) on removable, sterile glass disks in the bottom of a clear, flat-bottomed 24-well plate. Cultures were infected with 3×10^4 parasites (EGS strain) per well, in 0.5 mL media and plate was returned to incubator at 37° C. overnight. The following day, the media was removed and clear IMDM and compounds were added to making various concentrations of the drug, to a total volume of 0.5 mL. Two wells were filled with media only, as a control. Plates were returned to the 37° C. incubator for 72 hours.
Efficacy was determined following fixation. Staining was used to determine the numbers of cysts in cultures without and with treatment with the test compounds. Cells were fixed using 4% paraformaldehyde and stained with Fluorescein-labeled Dolichos Biflorus Agglutinin, DAPI, and anti-BAG1, and anti-SAG1. Disks were removed and mounted onto glass slides and visualized using microscopy (Nikon Tl7). Slides were also scanned using a CRi Pannoramic Scan Whole Slide Scanner and viewed using Panoramic Viewer Software.
as §1, with “[gibco,” for “[Gibco,”, “2” for “Two”, “72 hours, and checked once every 24” for “72”, “hours. If tachyzoites were visible in the control before 72 hours, the cells were fixed and stained.” for “hours.”
Cells were fixed using 4% paraformaldehyde and stained with Fluorescein-labeled Dolichos Biflorus Agglutinin, DAPI, and BAG1. Disks were removed and mounted onto glass slides and visualized using microscopy (Nikon Tl7). Slides were scanned using a CRi Pannoramic Scan Whole Slide Scanner and viewed using Panoramic Viewer Software. Effects of the compounds were quantified by counting cysts in the controls and treated cells. Cysts and persisting organisms were counted in a representative field of view and then multiplied by a factor determined by the total area of the disk in order to estimate the number of cysts and organisms in each condition.
HFF cells were grown in IMDM (1×, [+] glutamine, [+] 25 mM HEPES, [+] Phenol red, 10% FBS, [gibco, Denmark]) on removable, sterile glass disks in the bottom of a clear, flat-bottomed 24-well plate. Cultures were infected with 3×10^4 parasites (EGS strain) per well, in 0.5 mL media and plate was returned to incubator at 37° C. overnight. The following day, the media was removed and clear IMDM and compounds were added to making various concentrations of the drug, to a total volume of 0.5 mL. 2 wells were filled with media only, as a control. Plates were returned to the 37° C. incubator for 72 hours, and checked once every 24 hours. If tachyzoites were visible in the control before 72 hours, the cells were fixed and stained. Cells were fixed using 4% paraformaldehyde and stained with Fluorescein-labeled Dolichos Biflorus Agglutinin, DAPI, and BAG1. Disks were removed and mounted onto glass slides and visualized using microscopy (Nikon Tl7). Slides were scanned using a CRi Pannoramic Scan Whole Slide Scanner and viewed using Panoramic Viewer Software. Effects of the compounds were quantified by counting cysts in the controls and treated cells. Cysts and persisting organisms were counted in a representative field of view and then multiplied by a factor determined by the total area of the disk in order to estimate the number of cysts and organisms in each condition. Data was collected using Gen5 software. IC50 was calculated by graphical analysis in Excel.

[3] = FaSSIF solubility pH 6.5; assay type: physicochemical; conditions: pH 6.5
[4] = Microsomal metabolic stability, human; assay type: in vitro ADME
[5] = Microsomal metabolic stability, mouse; assay type: in vitro ADME
[6] = Aqueous kinetic solubility pH 7.4; assay type: physicochemical; conditions: PBS pH 7.4
[7] = Cytotoxicity assay with WST-1 in HFF; assay type: cell-based; conditions: human, human foreskin fibroblasts (HFF); read-out: HFF Toxicity CC50
Experimental: (§2) Toxicity assays were conducted using WST-1 cell proliferation reagent (Roche). HFF were grown on a flat, clear-bottomed, black 96-well plate. Confluent HFF were treated with inhibitory compounds at concentrations equal to those being tested in challenge assays. Compounds were diluted in IMDM-C, and 20 μl were added to each designated well, with triplicates for each condition. A gradient of 2 fold-decreasing concentrations of DMSO in clear IMDM-C was used as a control. The plate was incubated for 72 hours at 37° C. 10 μl of WST-1 reagent (Roche) were added to each well and the cells were incubated for 30 to 60 minutes. Absorbance was read using a fluorometer at 420 nm. A higher degree of color change (and absorbance) indicated mitochondrial activity and cell viability.
as §2, with “(Roche) as described in Fomovska, et. al. (18,19).” for “(Roche).”, “of 10 μM and 50 μM.” for “equal to those being tested in challenge assays.”, “DMSO from 10% to 0%” for “DMSO”, “fluorimeter” for “fluorometer”

[8] = test system: human foreskin fibroblasts (HFF); test: Cytotoxicity assay with WST-1 in HFF; assay type: cell-based; conditions: 10 μM and 50 μM, WST-1
Experimental: as §2
as §2, with “(Roche) as described in Fomovska, et. al. (18,19).” for “(Roche).”, “of 10 μM and 50 μM.” for “equal to those being tested in challenge assays.”, “DMSO from 10% to 0%” for “DMSO”, “fluorimeter” for “fluorometer”

[9] = test system: RH-YFP; test: Assessment of compound degradation and microbicidal effect on Toxoplasma; assay type: cell-based, Toxoplasma gondii
Experimental: HFF were cultured in a 96-well plate and infected with RH-YFP as described above on Day 0, 20 μL of compound was added to 9 wells for each compound and concentration (3 conditions, 3 wells per condition). In condition I, media was removed and replaced with fresh media on Day 3. In condition II, media was removed and replaced with fresh media and more compound on Day 3. In condition III, media was not replaced on Day 3, nor was the compound refreshed. On Day 6, media was removed and replaced with clean media in all wells. On Day 3, 6, and 9 plate was read in the fluorimeter and analyzed graphically in Prism (GraphPad Software).

[10] = in vitro; assay type: in vitro ADME; conditions: dog, MDCK-MDR1
[11] = test system: MDR1; test: in vitro; assay type: in vitro ADME; conditions: dog, MDCK-MDR1, MDCK-MDR1 Efflux Ratio

SMILES: Cc1[nH]c2ccccc2c(=O)c1-c1ccc(Oc2ccc(OC(F)(F)F)cc2)cc1 [ELQ 271, reference compound]
- IC50 ([1]; C2B strain (multi-drug resistant, atovaquone resistant)): 130 nM
- IC50 ([1]; D6 strain (drug sensitive)): 30 nM
- IC50 ([1]; TM91C235 strain (multi-drug resistant)): 90 nM
- IC50 ([1]; W2 strain (chloroquine resistant)): 100 nM
- IC50 ([2]; Toxoplasma gondii, EGS strain, read-out: T. gondii Bradyzoite IC50): 1000 nM
- solubility [3]: 3.4 µM (≈ 1.4 µg/mL)
- Human microsomal stability T1/2 [4]: 2.87 h and 2.865 h
- Mouse microsomal stability T1/2 [5]: >3.33 h
- half-life ([5]; mouse, liver microsomes, read-out: Mouse microsomal stability T1/2): > 3.33 h
- solubility kinetic [6]: 0.15 µM (≈ 0.0617 µg/mL)
- CC50 at 72 h [7]: 20000 nM

SMILES: Cc1[nH]c2c(c(=O)c1-c1ccc(Oc3ccc(Cl)cc3)cc1)CCCC2 [JAG050, 3-(4-(4-chlorophenoxy)phenyl)-2-methyl-5,6,7,8-tetrahydroquinolin-4(1H)-one]
- reduction in the number of true cysts and small organisms ([2]; 1 μM and 10 μM, EGS): statistically significant reduction
- Pseudocysts ([2]; part a, 1 μM): 23.25 ± 10.31
- Small organisms ([2]; part a, 1 μM): 58 ± 24
- True Cysts ([2]; part a, 1 μM): 0.25 ± 0.5
- Pseudocysts ([2]; part a, 10 μM): 20.5 ± 2.9
- Small organisms ([2]; part a, 10 μM): 31 ± 16
- True Cysts ([2]; part a, 10 μM): 1 ± 0.82
- Pseudocysts ([2]; part b, 1 μM): 2269
- Small organisms ([2]; part b, 1 μM): 5086
- True Cysts ([2]; part b, 1 μM): 29
- Pseudocysts ([2]; part b, 10 μM): 1921
- Small organisms ([2]; part b, 10 μM): 3018
- True Cysts ([2]; part b, 10 μM): 88
- Human liver microsomes T1/2 [4]: 1.651 h
- Mouse liver microsomes T1/2 [5]: 1.142 h
- solubility kinetic ([6]; PBS, pH 7.4, aqueous buffer, kinetic from dmso stock): 16 µM (≈ 5.85 µg/mL)
- toxicity to human foreskin fibroblasts [8]: no toxicity
- compound degradation over time ([9]; 6-day exposure in culture): did not appear that the compound was being degraded over time
- microbicidal effect ([9]; RH-YFP, media replaced): Neither compound was found to be microbicidal
- Papp A→B [10]: > 10 ×10⁻⁶ cm/s
- efflux ratio [11]: < 1.5

Source: patent US11414385B2, “Compounds and methods for treating, detecting, and identifying compounds to treat apicomplexan parasitic diseases” (The University of Chicago, priority 2015, dated 2022)
